In this assay the target is T1, recombinant human GR (Homo sapiens, UniProt P04150).
T1 construct: purchased Panvera/Invitrogen P2812 (kit P2893)
T1 sequence (P04150 1-777): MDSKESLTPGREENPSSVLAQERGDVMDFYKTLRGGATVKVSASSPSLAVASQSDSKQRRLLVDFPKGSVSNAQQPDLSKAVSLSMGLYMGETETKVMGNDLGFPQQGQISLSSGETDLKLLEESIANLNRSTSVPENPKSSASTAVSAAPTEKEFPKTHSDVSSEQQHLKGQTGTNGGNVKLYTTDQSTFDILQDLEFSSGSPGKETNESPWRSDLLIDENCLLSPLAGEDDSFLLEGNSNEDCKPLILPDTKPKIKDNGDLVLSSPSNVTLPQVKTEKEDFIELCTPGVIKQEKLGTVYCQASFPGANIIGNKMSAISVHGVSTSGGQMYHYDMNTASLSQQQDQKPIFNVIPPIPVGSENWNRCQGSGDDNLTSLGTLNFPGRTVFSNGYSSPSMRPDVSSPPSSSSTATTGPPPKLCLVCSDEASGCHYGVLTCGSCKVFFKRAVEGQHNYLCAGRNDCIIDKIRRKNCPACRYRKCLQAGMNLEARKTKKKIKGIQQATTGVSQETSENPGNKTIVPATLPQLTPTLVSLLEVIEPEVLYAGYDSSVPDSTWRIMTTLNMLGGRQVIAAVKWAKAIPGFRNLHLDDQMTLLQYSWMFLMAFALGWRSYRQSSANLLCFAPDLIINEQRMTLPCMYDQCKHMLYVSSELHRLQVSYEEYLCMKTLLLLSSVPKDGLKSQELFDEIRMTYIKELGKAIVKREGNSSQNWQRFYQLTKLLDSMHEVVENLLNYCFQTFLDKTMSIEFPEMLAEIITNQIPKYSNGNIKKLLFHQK
Description: Human Glucocorticoid Receptor (GR) Assay (fluorescence polarization, Panvera/Invitrogen kit). The settings on record: fluorescence polarization; GS Red tracer; 2 hours at room temperature; 100% control 10 μM Dexamethasone; read-out: Inhibition of GR binding, IC50. The class given is binding. The method in brief:
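Fluorescence polarization competition with recombinant GR and GS Red fluorescent ligand plus stabilizing peptide and DTT in potassium phosphate/sodium molybdate/EDTA buffer with DMSO. Incubated 2 hours at room temperature in the dark; 0% control DMSO, 100% control 10 μM dexamethasone.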
For orientation: Fluorescence polarisation rises when a labelled molecule tumbles more slowly, as on binding a larger partner.

One may read the IC50 as the concentration at which inhibition is half-maximal. Turning to `COCC(=O)O[C@]1(C(=O)SCF)CC[C@H]2[C@@H]3CCC4=Cc5c(cnn5-c5ccc(F)cc5)C[C@]4(C)[C@@]3(F)[C@@H](O)C[C@@]21C` [Example 198, (1R,3aS,3bS,10aS,10bR,11S,12aS)-1-{[(Fluoromethyl)sulfanyl]carbonyl}-10b-fluoro-7-(4-fluorophenyl)-11-hydroxy-10a,12a-dimethyl-1,2,3,3a,3b,4,5,7,10,10a,10b,11,12,12a-tetradecahydrocyclopenta[5,6]naphtho[1,2-f]indazol-1-yl methoxyacetate], the IC50 came to 2.6 nM.

Take `CCC(=O)O[C@]1(C(=O)SCC#N)CC[C@H]2[C@@H]3CCC4=Cc5c(cnn5-c5ccc(F)cc5)C[C@]4(C)[C@H]3[C@@H](O)C[C@@]21C` [Example 10, (1R,3aS,3bS,10aR,10bS,11S,12aS)-1-{[(Cyanomethyl)thio]carbonyl}-7-(4-fluorophenyl)-11-hydroxy-10a,12a-dimethyl-1,2,3,3a,3b,4,5,7,10,10a,10b,11,12,12a-tetradecahydrocyclopenta[5,6]naphtho[1,2-f]indazol-1-yl propionate]: the IC50 was 3.2 nM.

Take `C[C@]12Cc3cnn(-c4ccc(F)c(CO)c4)c3C=C1CC[C@@H]1[C@@H]2[C@@H](O)C[C@@]2(C)[C@H]1CC[C@]2(OC(=O)c1ccco1)C(=O)SCF` [Example 81, (1R,3aS,3bS,10aR,10bS,11S,12aS)-7-[4-Fluoro-3-(hydroxymethyl)phenyl]-1-{[(fluoromethyl)thio]carbonyl}-11-hydroxy-10a,12a-dimethyl-1,2,3,3a,3b,4,5,7,10,10a,10b,11,12,12a-tetradecahydrocyclopenta[5,6]naphtho[1,2-f]indazol-1-yl furan-2-carboxylate]: the half-inhibitory concentration (IC50) was found to be 4.5 nM.

As for `C[C@]12Cc3cnn(-c4ccc(F)cc4)c3C=C1CC[C@@H]1[C@@H]2[C@@H](O)C[C@@]2(C)[C@H]1CC[C@]2(OC(=O)C1CC1)C(=O)SCC#CCO` [Example 37, (1R,3aS,3bS,10aR,10bS,11S,12aS)-7-(4-Fluorophenyl)-11-hydroxy-{[(4-hydroxybut-2-yn-1-yl)thio]carbonyl}-10a,12a-dimethyl-1,2,3,3a,3b,4,5,7,10,11a,10b,11,12,12a-tetradecahydrocyclopenta[5,6]naphtho[1,2-f]indazol-1-yl cyclopropanecarboxylate], the IC50 turned out to be 5.7 nM.

In the case of `C[C@]12Cc3cnn(-c4ccc(F)nc4)c3C=C1CC[C@@H]1[C@@H]2[C@@H](O)C[C@@]2(C)[C@H]1CC[C@]2(OC(=O)c1ccco1)C(=O)SCC#N` [Example 166, (1R,3aS,3bS,10aR,10bS,11S,12aS)-1-{[(Cyanomethyl)sulfanyl]carbonyl}-7-(6-fluoropyridin-3-yl)-11-hydroxy-10a,12a-dimethyl-1,2,3,3a,3b,4,5,7,10,10a,10b,11,12,12a-tetradecahydrocyclopenta[5,6]naphtho[1,2-f]indazol-1-yl furan-2-carboxylate], the half-maximal inhibitory concentration (IC50) was 5.8 nM.

Regarding `C[C@]12Cc3cnn(-c4ccc(F)c(CO)c4)c3C=C1CC[C@@H]1[C@@H]2[C@@H](O)C[C@@]2(C)[C@H]1CC[C@]2(OC(=O)c1ccco1)C(=O)OCC#N` [Example 79, Cyanomethyl(1R,3aS,3bS,10aR,10bS,11S,12aS)-7-[4-fluoro-3-(hydroxymethyl)phenyl]-1-[(furan-2-ylcarbonyl)oxy]-11-hydroxy-10a,12a-dimethyl-1,2,3,3a,3b,4,5,7,10,10a,10b,11,12,12a-tetradecahydrocyclopenta[5,6]naphtho[1,2-f]indazole-1-carboxylate], the IC50 came to 4.2 nM. As for `C[C@]12Cc3cnn(-c4ccc(F)cc4)c3C=C1CC[C@@H]1[C@@H]2[C@@H](O)C[C@@]2(C)[C@H]1CC[C@]2(OC(=O)[C@H]1CCCO1)C(=O)SCC#N` (single isomer, unassigned) [Example 128], the IC50 was determined as 3.8 nM. Turning to `C[C@@H]1C[C@H]2[C@@H]3CCC4=Cc5c(cnn5-c5ccc(F)cc5)C[C@]4(C)[C@H]3[C@@H](O)C[C@]2(C)[C@@]1(OC(=O)c1ccco1)C(=O)SCC#N` [Example 141, (1R,2R,3aS,3bS,10aR,10bS,11S,12aS)-1-{[(Cyanomethyl)thio]carbonyl}-7-(4-fluorophenyl)-11-hydroxy-2,10a,12a-trimethyl-1,2,3,3a,3b,4,5,7,10,10a,10b,11,12,12a-tetradecahydrocyclopenta[5,6]naphtho[1,2-f]indazol-1-yl furan-2-carboxylate], the IC50 stood at 13 nM. `Cc1ncsc1C(=O)O[C@]1(C(=O)OCC#N)CC[C@H]2[C@@H]3CCC4=Cc5c(cnn5-c5ccc(F)cc5)C[C@]4(C)[C@H]3[C@@H](O)C[C@@]21C` [Example 9, Cyanomethyl(1R,3aS,3bS,10aR,10bS,11S,12aS)-7-(4-fluorophenyl)-11-hydroxy-10a,12a-dimethyl-1-{[(4-methyl-1,3-thiazol-5-yl)carbonyl]oxy}-1,2,3,3a,3b,4,5,7,10,10a,10b,11,12,12a-tetradecahydrocyclopenta[5,6]naphtho[1,2-f]indazole-1-carboxylate]: the IC50 came out at 9.4 nM. Turning to `CCC(=O)O[C@]1(C(=O)SCOC)CC[C@H]2[C@@H]3CCC4=Cc5c(cnn5-c5ccc(F)nc5)C[C@]4(C)[C@H]3[C@@H](O)C[C@@]21C` [Example 98, (1R,3aS,3bS,10aR,10bS,11S,12aS)-7-(6-Fluoropyridin-3-yl)-11-hydroxy-1-{[(methoxymethyl)sulfanyl]carbonyl}-10a,12a-dimethyl-1,2,3,3a,3b,4,5,7,10,10a,10b,11,12,12a-tetradecahydrocyclopenta[5,6]naphtho[1,2-f]indazol-1-yl propanoate], the 50% inhibitory concentration (IC50) was 3.1 nM. The same measure for `CC(=O)CSC(=O)[C@@]1(OC(=O)c2cocn2)CC[C@H]2[C@@H]3CCC4=Cc5c(cnn5-c5ccc(F)cc5)C[C@]4(C)[C@H]3[C@@H](O)C[C@@]21C` [Example 46, (1R,3aS,3bS,10aR,10bS,11S,12aS)-7-(4-Fluorophenyl)-11-hydroxy-10a,12a-dimethyl-1-{[(2-oxopropyl)thio]carbonyl}-1,2,3,3a,3b,4,5,7,10,10a,10b,11,12,12a-tetradecahydropcyclopenta[5,6]naphtho[1,2-f]indazol-1-yl 1,3-oxazole-4-carboxylate]: 3.9 nM; for `C[C@]12Cc3cnn(-c4ccc(Cl)cn4)c3C=C1CC[C@@H]1[C@@H]2[C@@H](O)C[C@@]2(C)[C@H]1CC[C@]2(OC(=O)C1CC1)C(=O)SCF` [Example 150, (1R,3aS,3bS,10aR,10bS,11S,12aS)-7-(5-Chloropyridin-2-yl)-1-{[(fluoromethyl)sulfanyl]carbonyl}-11-hydroxy-10a,12a-dimethyl-1,2,3,3a,3b,4,5,7,10,10a,10b,11,12,12a-tetradecahydrocyclopenta[5,6]naphtho[1,2-f]indazol-1-yl cyclopropane Carboxylate]: 21 nM; for `CCSCC(=O)[C@@]1(OC(C)=O)CC[C@H]2[C@@H]3CCC4=Cc5c(cnn5-c5ccc(F)cc5)C[C@]4(C)[C@H]3[C@@H](O)C[C@@]21C` [Example 131, (1R,3aS,3bS,10aR,10bS,11S,12aS)-1-[(Ethylsulfanyl)acetyl]-7-(4-fluorophenyl)-11-hydroxy-10a,12a-dimethyl-1,2,3,3a,3b,4,5,7,10,10a,10b,11,12,12a-tetradecahydrocyclopenta[5,6]naphtho[1,2-f]indazol-1-yl acetate]: 4.1 nM.

Values taken from patent US8163724B2, “Glucocorticosteroids, processes for their preparation, pharmaceutical compositions containing them and their use in therapy” (AstraZeneca AB, priority 2007, dated 2012).
